This note sets out measurements from patent publication US8829195B2, “Compounds and compositions for inhibiting the activity of ABL1, ABL2 and BCR-ABL1” (Novartis AG, priority 2012, dated 2014).

Assay [1] addresses T1, ABL1 (64-515) (Homo sapiens, UniProt P00519).
T1 construct: 3.5 nM ABL (ABL(64-515), produced in-house from E. coli); His6 followed by a PreScission protease cleavage site (N, cleaved yes); made in house; host or cells: E. coli (BL21 (DE3) according to b733)
The assay is described as follows: Caliper ABL1 (64-515) microfluidic mobility shift assay. It is filed as biochemical.
Protocol: All assays were performed in 384-well microtiter plates. Each assay plate contained 8-point serial dilutions for 40 test compounds, as well as four 8-point serial dilutions of staurosporine as a reference compound, plus 16 high and 16 low controls. Liquid handling and incubation steps were done on a Thermo CatX workstation equipped with Innovadyne Nanodrop Express. Between pipetting steps, tips were cleaned in wash cycles using wash buffer.
The assay plates were prepared by addition of 50 mL per well of compound solution in 90% DMSO. […] Plates with terminated kinase reactions were transferred to the Caliper LC3000 workstations for reading. Phosphorylated and unphosphorylated peptides were separated using the Caliper microfluidic mobility shift technology. Briefly, samples from terminated kinase reactions were applied to the chip. Analytes are transported through the chip by constant buffer flow and the migration of the substrate peptide is monitored by the fluorescence signal of its label. Phosphorylated peptide (product) and unphosphorylated peptide (substrate) are separated in an electric field by their charge/mass ratio. Kinase activities were calculated from the amounts of formed phospho-peptide. IC50 values were determined from percent inhibition values at different compound concentrations by non-linear regression analysis.
Preparation of compound dilutions: Test compounds were dissolved in DMSO (10 mM) and transferred into 1.4 mL flat bottom or V-shaped Matrix tubes carrying a unique 2D matrix. The stock solutions were stored at +2° C. if not used immediately. For the test procedure the vials were defrosted and identified by a scanner whereby a working sheet was generated that guided the subsequent working steps.
Compound dilutions were made in 96-well plates. This format enabled the assay of maximally 40 individual test compounds at 8 concentrations (single points) including 4 reference compounds. The dilution protocol included the production of “pre-dilution plates”, “master plates” and “assay plates”.
Pre-dilution plates: Polypropylene 96-well plates were used as pre-dilution plates. […] All dilution steps were done on a HamiltonSTAR robot.
These plates were used directly for the assay which was performed in a total volume of 9.05 μL.

Assay [2] concerns the target T1, ABL1 (64-515). The assay can be described thus: Radio ABL1 (64-515) radiometric filter-binding assay. Type of assay: biochemical.
Protocol: Expression and purification of protein kinase—Expression and purification of human ABL was performed using standard expression purification procedures. […] The His-ABL was expressed in E. coli BL21 (DE3) and the ABL proteins were isolated by Ni-affinity on a Ni-NTA column (Qiagen). The His-tag was removed by PreScission protease (GE Healthcare) and the non-phosphoprylated ABL further purified on a Mono Q HR 10/10 (GE Healthcare, mono-phosphorylated ABL is about 10-20% of total ABL protein) and HiLoad 16/60 Superdex 200 size exclusion column (GE Healthcare).
For determination of ABL kinase activity, the radiometric filter-binding assay was used. […] 10 μL of enzyme (ranging between 5 nM to 20 nM) was added to initiate the reaction. Pre-incubation of enzyme with compounds (when stated) was performed by exposing the enzyme to compounds prior to addition of the substrate mixture (ATP and/or peptide substrate). […] Filter-plates were washed 3× with 0.5% H3PO4, followed by addition of 30 μL scintillation cocktail (Microscint, Perkin Elmer) per well and then analysed in a TopCount NXT scintillation counter (Perkin Elmer). Results were expressed as IC50 values.
In a further assay the target is T2, Ba/F3-BCR-ABL1-WT cells (Homo sapiens, UniProt P00519).
T2 construct: fused on or other part: P11274 (Breakpoint cluster region protein)
The assay is described as follows: Ba/F3-BCR-ABL1-WT cell proliferation assay. Type of assay: cell-based, murine. The settings on record: 48 hours; read-out: Ba/F3-BCR-ABL1-WT IC50.

The target of assay [3] is T3, Ba/F3-BCR-ABL1-T315I cells (Homo sapiens, UniProt P00519, T315I, cells depend on it).
T3 construct: A similar approach was used to generate Ba/F3 cells that depend on a BCR-ABL1 variant in which threonine 315 is replaced with isoleucine; fused on or other part: P11274 (Breakpoint cluster region protein)
The assay can be described thus: Ba/F3-BCR-ABL1-T315I cell proliferation assay. Type of assay: cell-based, murine. The settings on record: 48 hours; read-out: Ba/F3-BCR-ABL1-T315I IC50.

[4] abbreviates: comparison of ortho substitution on R3/R4 ring.

A value given as a limit tells only on which side of the number the result lay.

Protocol for Ba/F3-BCR-ABL1-WT cells: To generate Ba/F3 cells that depend on BCR-ABL1 expression for growth and survival, Ba/F3 cells were engineered to express BCR-ABL1 using retroviral transduction with a MSCV based retroviral vector containing a p210 BCR-ABLlexpression cassette. […] These cells are referred to as Ba/F3-BCR-ABL-WT.
Ba/F3-WT cells were maintained in RPMI1640 media with L-glutamine, HEPES (Lonza), 10% FBS (Gibco) and 5 ng/ml IL-3 (Calbiochem). Ba/F3-BCR-ABL1-WT cells and Ba/F3-BCR-ABL1-T315I cells were manitained in RPMI1640 media with L-glutamine, HEPES (Lonza) and 10% FBS (Gibco).
For each cell line, the cell density was adjusted to 50 000 cells/mL and 50 μL (2500 cells) added per well of a 384-well assay plate.
Test compounds were resuspended in DMSO at a concentration of 10 mM. A serial three-fold dilution of each compound with DMSO was performed in 384-well plates using the Janus Liquid Dispenser (PerkinElmer). Compound was delivered to the assay plates containing 2500 cells in a 50 μL volume via Acoustic delivery from an ATS-100 (EDC).
Cells were incubated at 37° C. in a humidified environment with 5% carbon dioxide for 48 hours. Britelite plus solution (Perkin Elmer) was prepared according to the manufacturer's instructions and 25 μL added to each well of the assay plate. […] The degree of luminescence correlates with the number of cells in each well. The effect of each inhibitor concentration can therefore be calculated and IC50 values generated.

What is called IC50 is the midpoint of a concentration-inhibition curve. For the molecule `O=C(Nc1ccc(OC(F)(F)F)cc1Cl)c1cnc(N2CC[C@@H](O)C2)c(-c2ccn[nH]2)c1`, at ABL1 (64-515) [1] (setting [4]), the concentration for half-maximal inhibition (IC50) was 1600 nM.
Still for that read-out and setting: next, `Cc1cc(OC(F)(F)F)ccc1NC(=O)c1cnc(N2CC[C@@H](O)C2)c(-c2ccn[nH]2)c1`: 1800 nM.
As to `O=C(Nc1ccc(OC(F)(F)F)cc1)c1ccc(N2CC[C@@H](O)C2)c(-c2ccn[nH]2)c1` [Example 1, (R)-4-(3-Hydroxypyrrolidin-1-yl)-3-(1H-pyrazol-5-yl)-N-(4-(trifluoromethoxy)phenyl)benzamide], the IC50 on ABL1 (64-515) [1] (Table of Biochemical Data) was 2.2 nM; at ABL1 (64-515) [2], less than 3 nM.
As for `Cc1cc(-c2cc(C(=O)Nc3ccc(OC(F)(F)F)cc3)cnc2N2CC[C@@H](O)C2)[nH]n1` [Example 3, (R)-6-(3-Hydroxypyrrolidin-1-yl)-5-(3-methyl-1H-pyrazol-5-yl)-N-(4-(trifluoromethoxy)phenyl)nicotinamide], the IC50 came out at 0.7 nM on ABL1 (64-515) [1] (Table of Biochemical Data) and 4 nM on ABL1 (64-515) [2]. Moreover, the GI50 amounted to 7.5 nM at Ba/F3-BCR-ABL1-WT cells and 133 nM in assay [3].
For `Cc1cn[nH]c1-c1cc(C(=O)Nc2ccc(OC(F)(F)F)cc2)cnc1N1CC[C@@H](O)C1` [Example 4, (R)-6-(3-Hydroxypyrrolidin-1-yl)-5-(4-methyl-1H-pyrazol-5-yl)-N-(4-(trifluoromethoxy)phenyl)nicotinamide] the same measures were 1.3 nM, 3.4 nM, 11.7 nM and 327 nM.
For `O=C(Nc1ccc(OC(F)(F)F)cc1)c1cnc(N2CC[C@@H](O)C2)c(-c2[nH]ncc2F)c1` [Example 5, (R)-5-(4-Fluoro-1H-pyrazol-5-yl)-6-(3-hydroxypyrrolidin-1-yl)-N-(4-(trifluoromethoxy)phenyl)nicotinamide], in that order: 1.2 nM, 7 nM, 8.1 nM and 134 nM.
In the case of `Cn1cc(-c2cc(C(=O)Nc3ccc(OC(F)(F)F)cc3)cnc2N2CC[C@@H](O)C2)cn1` [Example 6, (R)-6-(3-Hydroxypyrrolidin-1-yl)-5-(1-methyl-1H-pyrazol-4-yl)-N-(4-(trifluoromethoxy)phenyl)nicotinamide], the figures for the 50% inhibitory concentration (IC50) at ABL1 (64-515) [1] (Table of Biochemical Data) and on ABL1 (64-515) [2] were 3.2 nM and 3 nM, respectively.
For the molecule `O=C(Nc1ccc(OC(F)(F)F)cc1)c1cnc(N2CC[C@H](CO)C2)c(-c2ccn[nH]2)c1` [Example 7, (S)-6-(3-(Hydroxymethyl)pyrrolidin-1-yl)-5-(1H-pyrazol-5-yl)-N-(4-(trifluoromethoxy)phenyl)nicotinamide], the half-maximal inhibitory concentration (IC50) on ABL1 (64-515) [1] (Table of Biochemical Data) was 0.4 nM; at ABL1 (64-515) [2], less than 3 nM. In addition, the GI50 on Ba/F3-BCR-ABL1-WT cells came to 6 nM; in assay [3], 132 nM.
For `O=C(Nc1ccc(OC(F)(F)Cl)cc1)c1cnc(N2CC[C@H](CO)C2)c(-c2ccn[nH]2)c1` [Example 10, (S)—N-(4-(Chlorodifluoromethoxy)phenyl)-6-(3-(hydroxymethyl)pyrrolidin-1-yl)-5-(1H-pyrazol-5-yl)nicotinamide], in that order: 0.3 nM, less than 0.13 nM, 1.9 nM and 44 nM.
For `O=C(Nc1ccc(SC(F)(F)F)cc1)c1cnc(N2CC[C@@H](O)C2)c(-c2ccn[nH]2)c1` [Example 11, (R)-6-(3-Hydroxypyrrolidin-1-yl)-5-(1H-pyrazol-5-yl)-N-(4-((trifluoromethyl)thio)phenyl)nicotinamide], in that order: less than 0.13 nM, less than 3 nM, 1 nM and 38 nM.
For `O=C(Nc1ccc(SC(F)(F)F)cc1)c1cnc(N2CC[C@H](CO)C2)c(-c2ccn[nH]2)c1` [Example 12, (S)-6-(3-(Hydroxymethyl)pyrrolidin-1-yl)-5-(1H-pyrazol-5-yl)-N-(4-((trifluoromethyl)thio)phenyl)nicotinamide] the same measures were 0.5 nM, 6 nM, 1.9 nM and 38 nM.
As for `O=C(Nc1ccc(OC(F)(F)F)c(F)c1)c1cnc(N2CC[C@@H](O)C2)c(-c2ccn[nH]2)c1` [Example 13, (R)—N-(3-Fluoro-4-(trifluoromethoxy)phenyl)-6-(3-hydroxypyrrolidin-1-yl)-5-(1H-pyrazol-5-yl)nicotinamide], the concentration for half-maximal inhibition (IC50) came out at 0.6 nM at ABL1 (64-515) [1] (Table of Biochemical Data) and 10 nM at ABL1 (64-515) [2]. Moreover, the GI50 was determined as 9.6 nM at Ba/F3-BCR-ABL1-WT cells and 150 nM in assay [3].
For `O=C(Nc1ccc(OC(F)(F)F)c(F)c1)c1cnc(N2CC[C@H](CO)C2)c(-c2ccn[nH]2)c1` [Example 14, (S)—N-(3-Fluoro-4-(trifluoromethoxy)phenyl)-6-(3-(hydroxymethyl)pyrrolidin-1-yl)-5-(1H-pyrazol-5-yl)nicotinamide] the same measures were 0.9 nM, 10 nM, 18.9 nM and 218 nM.
As to `O=C(Nc1ccc(SC(F)(F)F)c(F)c1)c1cnc(N2CC[C@@H](O)C2)c(-c2ccn[nH]2)c1` [Example 15, (R)—N-(3-Fluoro-4-((trifluoromethyl)thio)phenyl)-6-(3-hydroxypyrrolidin-1-yl)-5-(1H-pyrazol-5-yl)nicotinamide], the half-inhibitory concentration (IC50) on ABL1 (64-515) [1] (Table of Biochemical Data) was 0.3 nM; at ABL1 (64-515) [2], 11 nM. Further, the GI50 at Ba/F3-BCR-ABL1-WT cells amounted to 1.9 nM; in assay [3], 31 nM.
On to `O=C(Nc1ccc(C(F)(F)C(F)(F)F)cc1)c1cnc(N2CC[C@@H](O)C2)c(-c2ccn[nH]2)c1` [Example 16, (R)-6-(3-Hydroxypyrrolidin-1-yl)-N-(4-(perfluoroethyl)phenyl)-5-(1H-pyrazol-5-yl)nicotinamide], for which the figures for the half-inhibitory concentration (IC50) at ABL1 (64-515) [1] (Table of Biochemical Data) and at ABL1 (64-515) [2] were less than 0.13 nM and 12 nM, respectively. Also, the GI50 at Ba/F3-BCR-ABL1-WT cells is 4.1 nM; in assay [3], 92 nM.
For `O=C(Nc1ccc(S(F)(F)(F)(F)F)cc1)c1cnc(N2CC[C@@H](O)C2)c(-c2ccn[nH]2)c1` [Example 17, (R)-6-(3-Hydroxypyrrolidin-1-yl)-N-(4-(pentafluorosulfanyl)phenyl)-5-(1H-pyrazol-5-yl)nicotinamide], in that order: 2.4 nM, 3 nM, 15.5 nM and 199 nM.
Regarding `O=C(Nc1ccc(OC(F)(F)Cl)cc1)c1ccc(N2CC[C@@H](O)C2)c(-c2ccn[nH]2)c1` [Example 20, (R)—N-(4-(Chlorodifluoromethoxy)phenyl)-4-(3-hydroxypyrrolidin-1-yl)-3-(1H-pyrazol-5-yl)benzamide], the IC50 worked out at 0.4 nM at ABL1 (64-515) [1] (Table of Biochemical Data) and 1.3 nM on ABL1 (64-515) [2].
For `Cc1cc(-c2cc(C(=O)Nc3ccc(OC(F)(F)Cl)cc3)ccc2N2CC[C@@H](O)C2)[nH]n1` [Example 22, (R)—N-(4-(Chlorodifluoromethoxy)phenyl)-4-(3-hydroxypyrrolidin-1-yl)-3-(3-methyl-1H-pyrazol-5-yl)benzamide], in that order: less than 0.64 nM and 6 nM.
For `Cn1nccc1-c1cc(C(=O)Nc2ccc(OC(F)(F)Cl)cc2)cnc1N1CC[C@@H](O)C1` [Example 27, (R)—N-(4-(Chlorodifluoromethoxy)phenyl)-6-(3-hydroxypyrrolidin-1-yl)-5-(1-methyl-1H-pyrazol-5-yl)nicotinamide], in that order: 1.1 nM and 2 nM.
`O=C(Nc1ccc(OC(F)(F)Cl)cc1)c1cnc(N2CC[C@@H](O)C2)c(-c2cnn(CCO)c2)c1` [Example 29, (R)—N-(4-(Chlorodifluoromethoxy)phenyl)-5-(1-(2-hydroxyethyl)-1H-pyrazol-4-yl)-6-(3-hydroxypyrrolidin-1-yl)nicotinamide]: the concentration for half-maximal inhibition (IC50) at ABL1 (64-515) [1] (Table of Biochemical Data) was found to be 0.9 nM; at ABL1 (64-515) [2], 9 nM.
For `O=C(Nc1ccc(SC(F)(F)F)nc1)c1cnc(N2CC[C@@H](O)C2)c(-c2ccn[nH]2)c1` [Example 32, (R)-6-(3-Hydroxypyrrolidin-1-yl)-5-(1H-pyrazol-5-yl)-N-(6-((trifluoromethyl)thio)pyridin-3-yl)nicotinamide], in that order: 13 nM and 3 nM.
`COC(=O)C1CCN(c2ncc(C(=O)Nc3ccc(OC(F)(F)Cl)cc3)cc2-c2ccn[nH]2)C1` (stereo not shown) [Example 36, Methyl 1-(5-((4-(chlorodifluoromethoxy)phenyl)carbamoyl)-3-(1H-pyrazol-5-yl)pyridin-2-yl)pyrrolidine-3-carboxylate]: the concentration for half-maximal inhibition (IC50) on ABL1 (64-515) [1] (Table of Biochemical Data) stood at 2.1 nM. The GI50 at Ba/F3-BCR-ABL1-WT cells was found to be 1.9 nM; in assay [3], 71 nM.
On to `O=C(Nc1ccc(OC(F)(F)Cl)cc1)c1cnc(N2CCC(C(=O)O)C2)c(-c2ccn[nH]2)c1` (stereo not shown) [Example 37], for which, at ABL1 (64-515) [1] (Table of Biochemical Data), the half-inhibitory concentration (IC50) came to 0.5 nM.
Consider `CC(C)[C@H](N)C(=O)O[C@@H]1CCN(c2ncc(C(=O)Nc3ccc(OC(F)(F)Cl)cc3)cc2-c2ccn[nH]2)C1` [Example 38], for which the IC50 at ABL1 (64-515) [1] (Table of Biochemical Data) was 2.5 nM; on ABL1 (64-515) [2], 4 nM.
As to `O=C(Nc1ccc(OC(F)(F)Cl)cc1)c1cnc(N2CC[C@@H](OP(=O)(O)O)C2)c(-c2ccn[nH]2)c1` [Example 39, (R)-1-(5-(4-(Chlorodifluoromethoxy)phenyl)carbamoyl)-3-(1H-pyrazol-5-yl)pyridin-2-yl)pyrrolidin-3-yl dihydrogen phosphate], the IC50 is 1.3 nM at ABL1 (64-515) [1] (Table of Biochemical Data) and 3 nM on ABL1 (64-515) [2].
Consider `O=C(Nc1ccc(OC(F)(F)F)cc1)c1cnc(N2CC[C@@H](OP(=O)(O)O)C2)c(-c2ccn[nH]2)c1` [Example 40, (R)-1-(3-(1H-Pyrazol-5-yl)-5-(4-(trifluoromethoxy)phenyl)carbamoyl)pyridin-2-yl)pyrrolidin-3-yl dihydrogen phosphate], for which the half-inhibitory concentration (IC50) on ABL1 (64-515) [1] (Table of Biochemical Data) is 2.1 nM.
